The supplement of paper PMC11061612

What was measured:
Assay in all cases: combination Emax (second highest fraction inhibited in the dose matrix, 72 h); higher = more inhibition; extreme values may be limits of the assay
[1] = test system: SNU-C5 (Colorectal Carcinoma)
Method in brief: (§1)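 Bliss excess equals the observed combination effect minus the expected value EA + EB − EA·EB, where EA and EB are the effects of each agent alone. Combination Emax is the second-highest inhibition within the matrix. Inhibition was scaled from CellTiter-Glo 2.0 luminescence, with 0 set by vehicle wells and 1 by blank wells, after 72 hours of two-drug dosing of cells plated in 1536-well plates.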

[2] = test system: NCI-H2595 (Mesothelioma)
Method in brief: as §1

[3] = test system: MDA-MB-231 (Breast Carcinoma)
Method in brief: as §1

[4] = test system: HPAC (Pancreatic Carcinoma)
Method in brief: as §1

[5] = test system: NCI-H1694 (Small Cell Lung Carcinoma)
Method in brief: as §1

[6] = test system: TE-5 (Esophageal Squamous Cell Carcinoma)
Method in brief: as §1

[7] = test system: KM-H2 (Hodgkin's Lymphoma)
Method in brief: as §1

[8] = test system: NCI-H1781 (Lung Adenocarcinoma)
Method in brief: as §1

[9] = test system: SN12C (Kidney Carcinoma)
Method in brief: as §1

[10] = test system: COR-L95 (Small Cell Lung Carcinoma)
Method in brief: as §1

[11] = test system: HT-29 (Colorectal Carcinoma)
Method in brief: as §1

[12] = test system: SW780 (Bladder Carcinoma)
Method in brief: as §1

[13] = test system: MDA-MB-157 (Breast Carcinoma)
Method in brief: as §1

[14] = test system: OCI-AML2 (Acute Myeloid Leukemia)
Method in brief: as §1

[15] = test system: CTV-1 (T-Lymphoblastic Leukemia)
Method in brief: as §1

[16] = test system: TGBC24TKB (Biliary Tract Carcinoma)
Method in brief: as §1

[17] = test system: DMS-273 (Small Cell Lung Carcinoma)
Method in brief: as §1

[18] = test system: COR-L23 (Non-Small Cell Lung Carcinoma)
Method in brief: as §1

[19] = test system: DOV13 (Ovarian Carcinoma)
Method in brief: as §1

[20] = test system: U-266 (Plasma Cell Myeloma)
Method in brief: as §1

Compound | combination Emax [1] | combination Emax [2] | combination Emax [3] | combination Emax [4] | combination Emax [5] | combination Emax [6] | combination Emax [7] | combination Emax [8] | combination Emax [9] | combination Emax [10] | combination Emax [11] | combination Emax [12] | combination Emax [13] | combination Emax [14] | combination Emax [15] | combination Emax [16] | combination Emax [17] | combination Emax [18] | combination Emax [19] | combination Emax [20]
CN(CCO)CC[C@H](CSc1ccccc1)Nc1ccc(S(=O)(=O)NC(=O)c2ccc(N3CCC([C@@H](O)c4ccccc4-c4ccc(Cl)cc4)CC3)cc2)cc1S(=O)(=O)C(F)(F)F [AZD4320] + Cc1cc2ncnn2cc1Nc1ncc2c(n1)n(C1CCOCC1)c(=O)n2C [AZD7648] (first compound max 1 µM, 7x7, partner max 10 µM) | 0.225 | 0.12 | 0.637 | 0.321 | 0.76 | 0.531 | 0.0312 | 0.258 | 0.145 | 1 | 0.149 | 0.484 | 0.0975 | 1 | 0.315 | 0.682 | 0.398 | 0.0958 | 0.779 | 0.622
NC1(C(=O)N[C@@H](CCO)c2ccc(Cl)cc2)CCN(c2ncnc3[nH]ccc23)CC1 [Capivasertib] + CCN(CCO)CCCOc1ccc2c(Nc3cc(CC(=O)Nc4cccc(F)c4)[nH]n3)ncnc2c1 [AZD2811] (first compound max 10 µM, 7x7, partner max 1 µM) | 0.501 | 0.261 | 0.349 | 0.395 | 0.508 | 0.339 | 0.362 | 0.799 | 0.27 | 0.172 | 0.427 | 0.28 | 0.276 | 0.904 | 0.636 | 0.58 | 0.906 | 0.474 | 0.544 | 0.312
CN(CCO)CC[C@H](CSc1ccccc1)Nc1ccc(S(=O)(=O)NC(=O)c2ccc(N3CCC([C@@H](O)c4ccccc4-c4ccc(Cl)cc4)CC3)cc2)cc1S(=O)(=O)C(F)(F)F [AZD4320] + C[C@@H](Nc1cc(F)cc(F)c1)c1cc(C(=O)N(C)C)cc2c(=O)cc(N3CCOCC3)oc12 [AZD8186] (first compound max 1 µM, 7x7, partner max 3 µM) | 0.399 | 0.271 | 0.808 | 0.562 | 0.978 | 0.636 | – | 0.623 | 0.331 | 1 | 0.278 | 0.742 | 0.349 | 1 | 0.719 | 0.544 | 0.649 | 0.332 | 0.916 | 0.481
CCc1c2c(nc3ccc(O)cc13)-c1cc3c(c(=O)n1C2)COC(=O)[C@]3(O)CC [SN-38] + O=C(c1cc(Cc2n[nH]c(=O)c3ccccc23)ccc1F)N1CCN(C(=O)C2CC2)CC1 [Olaparib] (first compound max 0.3 µM, 7x7, partner max 10 µM) | – | 0.28 | 0.681 | 0.246 | – | 0.758 | – | 1 | 0.738 | 0.85 | 0.936 | – | 0.725 | 0.999 | 1 | 0.472 | 0.799 | 0.675 | 0.939 | 0.367
CN(C)CCCOc1ccc(-c2ccc3ncc4c(c3c2)n(C2CCOCC2)c(=O)n4C)cn1 [AZD0156] + O=C(c1cc(Cc2n[nH]c(=O)c3ccccc23)ccc1F)N1CCN(C(=O)C2CC2)CC1 [Olaparib] (first compound max 3 µM, partner max 3 µM) | 0.325 | 0.139 | 0.405 | 0.36 | – | 0.302 | 0.401 | 0.585 | 0.102 | 0.373 | 0.407 | 0.183 | 0.27 | 0.67 | 0.303 | 0.457 | 0.433 | 0.39 | 0.608 | 0.171
Cc1c2c(nn1C)CSCc1cc(n(C)n1)CSc1cc(c3ccccc3c1)OCCCc1c(C(=O)O)n(C)c3c-2c(Cl)ccc13 [AZD5991] + C1CN(CCC1(C(=O)N[C@@H](CCO)C2=CC=C(C=C2)Cl)N)C3=NC=NC4=C3C=CN4 [Capivasertib] (first compound max 1 µM, 7x7, partner max 3 µM) | – | 0.311 | 0.194 | 0.13 | 1 | 0.329 | 0.143 | 0.76 | 0.204 | 0.409 | 0.236 | 0.165 | 0.714 | 1 | 0.337 | 0.175 | 0.987 | 0.182 | 0.272 | 0.97
C=CCn1c(=O)c2cnc(Nc3ccc(N4CCN(C)CC4)cc3)nc2n1-c1cccc(C(C)(C)O)n1 [AZD1775] + C1CN(CCC1(C(=O)N[C@@H](CCO)C2=CC=C(C=C2)Cl)N)C3=NC=NC4=C3C=CN4 [Capivasertib] (first compound max 3 µM, partner max 3 µM) | 0.795 | 0.281 | 0.624 | 0.636 | – | 0.66 | 0.949 | 0.858 | 0.359 | 0.666 | 0.834 | 0.399 | 0.837 | 0.988 | 0.983 | 0.811 | 0.896 | 0.895 | 0.775 | 0.795
Cc1c2c(nn1C)CSCc1cc(n(C)n1)CSc1cc(c3ccccc3c1)OCCCc1c(C(=O)O)n(C)c3c-2c(Cl)ccc13 [AZD5991] + CN(C)CCCOc1ccc(-c2ccc3ncc4c(c3c2)n(C2CCOCC2)c(=O)n4C)cn1 [AZD0156] (first compound max 1 µM, 7x7, partner max 1 µM) | 0.196 | 0.328 | 0.351 | 0.586 | 0.98 | 0.266 | 0.201 | 0.665 | 0.222 | 0.378 | 0.254 | 0.206 | 0.69 | 0.961 | 0.301 | 0.165 | 0.976 | – | 0.324 | 0.919
COc1nnc2ccc(N3CCC(c4ccc(OCCN5CCN(C)C(=O)[C@H]5C)cc4)CC3)nn12 [AZD5153] + CN(CC[C@H](CSC1=CC=CC=C1)NC2=C(C=C(C=C2)S(=O)(=O)NC(=O)C3=CC=C(C=C3)N4CCC(CC4)[C@H](C5=CC=CC=C5C6=CC=C(C=C6)Cl)O)S(=O)(=O)C(F)(F)F)CCO [AZD4320] (first compound max 1 µM, 7x7, partner max 1 µM) | 0.569 | – | – | 0.713 | 1 | – | 0.551 | 0.251 | – | – | 0.774 | 0.369 | – | – | 0.933 | 0.932 | 0.746 | 0.424 | – | –
C[C@@H](c1ccc2nccn2c1)n1nnc2ncc(-c3cnn(C)c3)nc21 [Savolitinib] + CN(CC[C@H](CSC1=CC=CC=C1)NC2=C(C=C(C=C2)S(=O)(=O)NC(=O)C3=CC=C(C=C3)N4CCC(CC4)[C@H](C5=CC=CC=C5C6=CC=C(C=C6)Cl)O)S(=O)(=O)C(F)(F)F)CCO [AZD4320] (first compound max 1 µM, 7x7, partner max 1 µM) | 0.173 | – | – | 0.343 | 0.622 | – | 0.146 | 0.287 | – | – | 0.172 | 0.393 | – | – | 0.455 | 0.561 | 0.185 | 0.184 | – | –
CC(=O)c1c(C)c2cnc(Nc3ccc(N4CCNCC4)cn3)nc2n(C2CCCC2)c1=O [Palbociclib] + CN(CC[C@H](CSC1=CC=CC=C1)NC2=C(C=C(C=C2)S(=O)(=O)NC(=O)C3=CC=C(C=C3)N4CCC(CC4)[C@H](C5=CC=CC=C5C6=CC=C(C=C6)Cl)O)S(=O)(=O)C(F)(F)F)CCO [AZD4320] (first compound max 10 µM, 7x7, partner max 1 µM) | 0.388 | – | – | 0.497 | 0.941 | – | 0.608 | 0.476 | – | – | 0.498 | 0.395 | – | – | 0.94 | 0.736 | 0.306 | 0.298 | – | –
Cc1c2c(nn1C)CSCc1cc(n(C)n1)CSc1cc(c3ccccc3c1)OCCCc1c(C(=O)O)n(C)c3c-2c(Cl)ccc13 [AZD5991] + Cc1cc2ncnn2cc1Nc1ncc2c(n1)n(C1CCOCC1)c(=O)n2C [AZD7648] (first compound max 1 µM, 7x7, partner max 10 µM) | 0.267 | 0.291 | 0.333 | 0.254 | 0.998 | 0.356 | 0.172 | 0.515 | 0.269 | 0.315 | 0.223 | – | 0.708 | 0.967 | 0.29 | 0.243 | 0.988 | 0.131 | 0.458 | 0.945
CN(CCO)CC[C@H](CSc1ccccc1)Nc1ccc(S(=O)(=O)NC(=O)c2ccc(N3CCC([C@@H](O)c4ccccc4-c4ccc(Cl)cc4)CC3)cc2)cc1S(=O)(=O)C(F)(F)F [AZD4320] + C=CCn1c(=O)c2cnc(Nc3ccc(N4CCN(C)CC4)cc3)nc2n1-c1cccc(C(C)(C)O)n1 [AZD1775] (first compound max 1 µM, partner max 1 µM) | 0.619 | 0.141 | 0.716 | 1 | 0.906 | 0.663 | 0.979 | 0.563 | 0.322 | 1 | 0.965 | 0.457 | 0.67 | 1 | – | 0.682 | 0.708 | 0.656 | 0.999 | 0.95
